Measured values as given in patent publication US20140314904A1, “PRE-SLAUGHTER DIET INCLUDING METHIONINE” (ADISSEO FRANCE S.A.S., priority 2011, published 2014).

Legend:
slaughter pigs = test: Free protein thiol (protein oxidation, Ellman's reagent); type: in vivo, pig; conditions: for Level of free thiol (protein oxidation): 7 days at 2° C., LS mean ± SEM; for Decline of level of free thiol from storage without oxygen to high-oxygen MAP: vacuum versus MAP
Method: In Example 1 twenty-one pigs were randomly assigned to one of three feeding groups (n=7). The control group received a standardized diet only. The DLM and HMTBA groups received the standardized diet plus a high-methionine supplement (either DLM (i.e. […] At 48 h post mortem, 3 cm thick pork chops were either vacuum packed or sealed in a modified atmosphere (MA; 80% O2) and stored for an additional 7 days at 2° C. Instrumental hardness was measured using the Warner-Bratzler shear force (WBSF; Newton) method. Protein oxidation was measured as the loss of free thiol groups in proteins (nmol thiol per mg protein) using Ellman's reagent. Lipid oxidation was measured as the increase in 2-thiobarbituric acid reactive substances (TBARS; mg malondialdehyde per kg meat). Twenty-one slaughter pigs ([Yorkshire×Swedish Landrace]×Hampshire) were raised on a commercial diet. Pigs were randomly assigned to one of three groups (n=7). […] Pork chops were cut perpendicular to the long axis of each LD muscle. Six 3 cm thick pork chops was sliced from each LD. Three were vacuum packed and three were packed in a high-oxygen modified atmosphere. The chops were placed in plastic trays ([…]-43A white/PS; 195×144×43 mm in dimension; Frch Plast, Denmark) and placed in vacuum bags (EM-628862; […] The ambient air was removed from all vacuum bags using a vacuum machine (type, manufacturer, country). […] (until 9 days post mortem). The gas composition was checked (CheckMate 9900, PBI Dansensor, Denmark) before packaging and again prior to opening, at the end of the simulated display period in order to check for leakage. The oxygen-enriched environment was well maintained (83.4%) throughout the display period for all MA packages. […] In brief, the frozen pork samples were partially thawed at chill storage temperature for 30 minutes. Fat and connective tissue was removed and 1.0 g of lean meat was homogenised in 25 ml of 5.0% SDS (sodium dodecyl sulphate) in 0.10 M Tris ([…]) buffer, pH 8.0 using an Ultra Turrax (Ultra Turrax T-25, Janke & Kunkel IKA-Labortechnik, Germany). The homogenates were placed in a water bath at 80° C. for 30 minutes, and subsequently cooled and filtered. The protein concentration was determined spectrophotometrically (Helios Omega Single Beam UV-VIS, Fisher Scientific Biotech Line, Denmark) at a wavelength of 280 nm using a standard curve prepared from bovine serum albumin (BSA). […] Filtrate (25 μl), Tris buffer (100 μl) and DTNB (25 μl) were added to wells in a 96 well microtiter plate. The absorbance at 410 nm was measured before addition of DTNB (ABS410meat) and after reaction with DTNB (ABS410meat+DTNB). In addition, the absorbance of a blank solution (25 μl 5% SDS dissolved in 100 mM Tris buffer and 100 μl 0.10 M Tris buffer) was likewise measured at 410 nm. After addition of DTNB, the microtiter plate was stored in the dark and the absorbance was measured exactly 30 minutes later. The absorbance corresponding to the thiol concentration in the sample was CorrABS410=ABS410meat+DTNB-ABS410meat-ABS410blank. […] The concentration of free thiol groups was determined as nmol thiol per mg protein. Duplicate homogenates, and triplicate measurements on each homogenate, were made for each meat sample and the mean values were used for further statistical analysis.

[1] = system: L. dorsi muscle of the pigs; test: sEMG peak-to-peak amplitude of L. dorsi muscle; type: in vivo, pig; conditions: 1 weeks dietary supplementation
Source text: This study used both a single and a double differential electrode configuration, with electrodes ([…] & […]; Blue Sensor, Medicotest […], Denmark) configured as described previously by Harrison et al. (Harrison, […]. Molsted, & E. M. Bartels. The uremic environment and muscle dysfunction in man and rat. Nephron. Vol 103: 33-42, 2006). Surface electromyography recordings were taken via an ML 132 amplifier connected to a ML780 PowerLab/[…] converter (AD Instruments, Chalgrove, Oxfordshire, UK) with a further connection to a MacBook Air with Chart v. 3.6.3/s Software, Peak Parameters and Spike Histogram extensions. […] Sampling speed was set to 40,000 per second. Differential recordings of sEMG signals were made via surface electrodes from the L. dorsi muscle as previously described by Andersen et al. (2008, Andersen […], Guy J H, Edwards S A & Harrison A P, Postnatal changes in electromyographic signals during piglet growth, and in relation to muscle fibre types. […] In brief, a bipolar differential electrode configuration, with disposable Ag-AgCl recording electromyography electrodes was attached to the exposed skin surface above the L. dorsi muscle, with a set inter-electrode distance of 16-19 mm (Andersen et al., 2008). […] The recorded sEMG signal was assessed in terms of peak-to-peak amplitude (mV) using Chart analysis software (AD Instruments, Chalgrove, Oxfordshire, UK).

SMILES | Level of free thiol (protein oxidation) (slaughter pigs; MAP (80% O2 + 20% CO2)) | Level of free thiol (protein oxidation) (slaughter pigs; Vacuum) | Decline of level of free thiol from storage without oxygen to high-oxygen MAP (slaughter pigs) | Change in sEMG peak-to-peak amplitude between pre and post groups ([1]; 60, 150, 200 Hz) | Improvement in muscle growth/performance (sEMG peak-to-peak amplitude) cf CONT (untreated) levels [1]
CSCCC(N)C(=O)O (racemic) [DLM, DL-methionine] | 56.27 ± 1.13 ^B nmol thiol/mg protein | 62.16 ± 1.19 ^A nmol thiol/mg protein | 6.0 units | clear improvement | 
CSCCC(O)C(=O)O (racemic) [HMTBA, 2-hydroxy-4-(methylthio) butanoic acid] | 59.15 ± 1.13 ^A, B nmol thiol/mg protein | 62.60 ± 1.13 ^A nmol thiol/mg protein | 3.5 units |  | ~100%
